Measurements: paper PMC7827406, “Structure–Activity Relationship (SAR) Study of Spautin-1 to Entail the Discovery of Novel NEK4 Inhibitors” (International Journal of Molecular Sciences, 2021)
Read-outs that look alike come from different tables or passages of the source.

Key:
Assay in all cases: biochemical
Set-up in all cases: Eurofins KinaseProfiler full panel at Km ATP, residual kinase activity (%) relative to DMSO
PKCα(h) = biological target: T1, PKCα(h) (Homo sapiens, UniProt P17252)
T1 construct: gene PRKCA
Procedure: (§1) Eurofins performed a “Full KP Panel [Km ATP], KinaseProfile” which contains 429 radiometric kinase activity assays. The remaining kinase activity (%) was determined after treatment with the compounds at a concentration of 10 µM (Cfr. supporting information). Since we could not confirm the interaction between Spautin-1 analogues and USP13, a kinase screening was performed using a set of four compounds (Spautin-1 and three analogues) to discover off-targets and identify kinases that are potentially responsible for the reduction in cell viability observed in our screen (Table 2). The KINOMEscan from Eurofins was performed (see Table S1). This screen consists of a competitive binding assay in which the DNA-tagged kinase is incubated with one of the compounds in the presence of immobilized active site binding ligands. Binding of the compounds to the kinase hampers the binding of the kinase to the ligands and this inhibition was quantified by qPCR. The residual kinase activity, which represents the percentage of kinase attached to the immobilized ligands, was determined for 428 kinases at a standard screening concentration of 10 µM of the compounds dissolved in DMSO [61].

ZAP-70(h) = biological target: T2, ZAP-70(h) (Homo sapiens, UniProt P43403)
T2 construct: gene ZAP70
T2 sequence (P43403 1-619): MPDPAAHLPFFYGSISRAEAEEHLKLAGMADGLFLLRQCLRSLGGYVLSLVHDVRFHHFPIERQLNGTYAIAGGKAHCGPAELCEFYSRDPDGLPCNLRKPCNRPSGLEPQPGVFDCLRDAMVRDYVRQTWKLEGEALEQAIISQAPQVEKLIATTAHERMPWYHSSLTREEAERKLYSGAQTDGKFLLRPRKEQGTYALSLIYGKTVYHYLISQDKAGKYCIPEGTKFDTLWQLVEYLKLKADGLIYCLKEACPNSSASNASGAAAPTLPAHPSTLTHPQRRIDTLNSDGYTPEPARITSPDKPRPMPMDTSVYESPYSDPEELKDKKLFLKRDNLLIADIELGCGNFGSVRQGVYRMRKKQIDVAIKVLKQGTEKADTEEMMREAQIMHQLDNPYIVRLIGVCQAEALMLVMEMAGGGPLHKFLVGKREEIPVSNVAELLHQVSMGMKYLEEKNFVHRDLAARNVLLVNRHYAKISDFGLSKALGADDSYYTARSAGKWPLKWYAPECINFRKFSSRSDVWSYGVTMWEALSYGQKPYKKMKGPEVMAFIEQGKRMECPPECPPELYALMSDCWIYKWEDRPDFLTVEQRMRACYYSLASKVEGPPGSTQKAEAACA
Procedure: as §1

MSK1(h) = biological target: T3, MSK1(h) (Homo sapiens, UniProt O75582)
T3 construct: gene RPS6KA5
T3 sequence (O75582 whole entry): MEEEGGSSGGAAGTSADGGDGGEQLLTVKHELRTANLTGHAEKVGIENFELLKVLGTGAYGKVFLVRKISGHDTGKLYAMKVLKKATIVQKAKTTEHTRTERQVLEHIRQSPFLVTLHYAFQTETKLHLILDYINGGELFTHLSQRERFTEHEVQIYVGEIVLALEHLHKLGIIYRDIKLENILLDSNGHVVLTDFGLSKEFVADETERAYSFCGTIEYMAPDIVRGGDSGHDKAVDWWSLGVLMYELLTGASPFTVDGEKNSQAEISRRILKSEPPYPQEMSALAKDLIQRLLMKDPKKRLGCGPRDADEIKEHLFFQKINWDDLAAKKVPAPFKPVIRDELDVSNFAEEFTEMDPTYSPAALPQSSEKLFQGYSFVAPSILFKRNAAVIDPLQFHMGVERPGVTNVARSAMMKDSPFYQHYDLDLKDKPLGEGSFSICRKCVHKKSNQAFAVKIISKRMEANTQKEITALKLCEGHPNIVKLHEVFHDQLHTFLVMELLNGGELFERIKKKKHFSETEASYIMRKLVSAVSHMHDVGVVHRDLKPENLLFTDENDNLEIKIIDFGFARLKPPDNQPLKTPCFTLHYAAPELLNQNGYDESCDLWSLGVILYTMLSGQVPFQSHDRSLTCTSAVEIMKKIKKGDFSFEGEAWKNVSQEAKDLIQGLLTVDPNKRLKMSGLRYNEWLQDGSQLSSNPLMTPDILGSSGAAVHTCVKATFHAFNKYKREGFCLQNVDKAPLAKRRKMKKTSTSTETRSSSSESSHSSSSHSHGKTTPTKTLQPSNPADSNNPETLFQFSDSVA
Procedure: as §1

cKit(V654A)(h) = biological target: T4, cKit(V654A)(h) (Homo sapiens, UniProt P10721, V654A)
T4 construct: gene KIT
T4 sequence (P10721 whole entry V654A): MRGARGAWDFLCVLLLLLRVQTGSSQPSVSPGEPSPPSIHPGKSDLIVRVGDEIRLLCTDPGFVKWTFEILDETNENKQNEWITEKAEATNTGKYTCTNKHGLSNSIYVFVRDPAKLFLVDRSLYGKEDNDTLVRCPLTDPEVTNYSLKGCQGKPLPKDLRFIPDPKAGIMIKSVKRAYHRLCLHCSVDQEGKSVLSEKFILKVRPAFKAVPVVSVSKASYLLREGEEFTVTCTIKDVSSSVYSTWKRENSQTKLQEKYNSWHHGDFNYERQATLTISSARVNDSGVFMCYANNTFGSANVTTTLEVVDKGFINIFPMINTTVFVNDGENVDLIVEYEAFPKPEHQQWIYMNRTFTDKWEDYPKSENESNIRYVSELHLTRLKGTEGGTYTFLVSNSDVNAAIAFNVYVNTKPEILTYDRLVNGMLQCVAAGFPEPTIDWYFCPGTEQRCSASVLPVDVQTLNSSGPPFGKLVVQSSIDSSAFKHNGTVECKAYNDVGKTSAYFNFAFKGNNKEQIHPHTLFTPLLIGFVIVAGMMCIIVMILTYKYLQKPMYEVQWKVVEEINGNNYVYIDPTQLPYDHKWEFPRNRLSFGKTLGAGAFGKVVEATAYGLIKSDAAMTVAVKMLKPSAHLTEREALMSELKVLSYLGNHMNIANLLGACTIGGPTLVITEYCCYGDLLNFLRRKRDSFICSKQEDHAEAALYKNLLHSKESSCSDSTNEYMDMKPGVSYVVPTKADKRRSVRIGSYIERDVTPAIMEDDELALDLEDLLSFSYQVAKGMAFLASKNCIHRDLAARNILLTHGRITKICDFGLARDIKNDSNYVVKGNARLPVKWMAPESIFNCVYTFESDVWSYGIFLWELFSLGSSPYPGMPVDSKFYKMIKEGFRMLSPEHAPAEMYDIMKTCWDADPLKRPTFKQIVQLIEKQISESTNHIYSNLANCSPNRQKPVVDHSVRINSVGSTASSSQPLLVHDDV
Procedure: as §1

PIP4K2a(h) = biological target: T5, PIP4K2a(h) (Homo sapiens, UniProt P48426)
T5 sequence (P48426 1-406): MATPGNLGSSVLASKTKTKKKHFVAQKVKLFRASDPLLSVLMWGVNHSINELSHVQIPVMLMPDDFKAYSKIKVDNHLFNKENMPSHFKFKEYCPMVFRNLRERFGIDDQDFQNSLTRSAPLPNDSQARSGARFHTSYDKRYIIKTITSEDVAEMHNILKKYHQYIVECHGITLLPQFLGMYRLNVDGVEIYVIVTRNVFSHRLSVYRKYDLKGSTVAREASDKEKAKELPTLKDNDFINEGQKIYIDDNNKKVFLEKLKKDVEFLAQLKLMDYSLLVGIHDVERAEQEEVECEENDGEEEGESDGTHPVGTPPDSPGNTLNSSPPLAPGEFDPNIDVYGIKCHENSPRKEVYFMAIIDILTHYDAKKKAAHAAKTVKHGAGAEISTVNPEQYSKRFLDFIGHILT
Procedure: as §1

CK1ε(h) = biological target: T6, CK1ε(h) (Homo sapiens, UniProt P49674)
T6 construct: gene CSNK1E
T6 sequence (P49674 whole entry): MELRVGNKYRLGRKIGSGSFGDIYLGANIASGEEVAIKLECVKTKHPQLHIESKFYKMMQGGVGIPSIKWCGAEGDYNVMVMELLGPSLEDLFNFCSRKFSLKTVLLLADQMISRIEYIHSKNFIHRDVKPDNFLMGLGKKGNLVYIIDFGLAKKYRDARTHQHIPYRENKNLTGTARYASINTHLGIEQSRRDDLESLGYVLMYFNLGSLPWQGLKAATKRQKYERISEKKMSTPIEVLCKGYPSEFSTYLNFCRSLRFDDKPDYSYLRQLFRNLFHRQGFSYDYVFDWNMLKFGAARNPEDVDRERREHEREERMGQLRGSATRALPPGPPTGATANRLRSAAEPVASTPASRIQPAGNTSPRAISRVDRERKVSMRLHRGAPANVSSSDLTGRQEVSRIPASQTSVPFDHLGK
Procedure: as §1

MSK2(h) = biological target: T7, MSK2(h) (Homo sapiens, UniProt O75676)
T7 construct: gene RPS6KA4
T7 sequence (O75676 whole entry): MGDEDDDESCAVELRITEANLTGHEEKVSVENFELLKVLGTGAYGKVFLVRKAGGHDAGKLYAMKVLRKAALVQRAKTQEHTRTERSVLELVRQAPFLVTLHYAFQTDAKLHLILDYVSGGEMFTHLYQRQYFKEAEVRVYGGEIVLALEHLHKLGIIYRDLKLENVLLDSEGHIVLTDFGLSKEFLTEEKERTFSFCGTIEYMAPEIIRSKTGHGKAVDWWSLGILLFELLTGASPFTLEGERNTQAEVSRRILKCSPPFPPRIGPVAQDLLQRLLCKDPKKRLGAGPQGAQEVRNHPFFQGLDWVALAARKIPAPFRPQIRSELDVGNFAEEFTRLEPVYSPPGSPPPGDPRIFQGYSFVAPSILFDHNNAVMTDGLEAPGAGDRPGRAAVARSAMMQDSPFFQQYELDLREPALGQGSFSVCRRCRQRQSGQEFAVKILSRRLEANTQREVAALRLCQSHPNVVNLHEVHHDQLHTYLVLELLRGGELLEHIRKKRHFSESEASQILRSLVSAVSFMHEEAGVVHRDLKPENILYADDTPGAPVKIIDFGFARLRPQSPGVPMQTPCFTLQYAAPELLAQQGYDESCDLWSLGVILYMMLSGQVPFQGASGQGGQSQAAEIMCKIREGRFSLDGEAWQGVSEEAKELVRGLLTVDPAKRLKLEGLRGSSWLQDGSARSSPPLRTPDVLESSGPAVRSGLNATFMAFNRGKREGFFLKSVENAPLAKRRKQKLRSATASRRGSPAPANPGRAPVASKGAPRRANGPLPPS
Procedure: as §1

STK16(h) = STK16(h) (Homo sapiens, UniProt O75716)
Procedure: as §1

B-Raf(h) = biological target: T8, B-Raf(h) (Homo sapiens, UniProt P15056)
T8 construct: gene BRAF
T8 sequence (P15056 whole entry): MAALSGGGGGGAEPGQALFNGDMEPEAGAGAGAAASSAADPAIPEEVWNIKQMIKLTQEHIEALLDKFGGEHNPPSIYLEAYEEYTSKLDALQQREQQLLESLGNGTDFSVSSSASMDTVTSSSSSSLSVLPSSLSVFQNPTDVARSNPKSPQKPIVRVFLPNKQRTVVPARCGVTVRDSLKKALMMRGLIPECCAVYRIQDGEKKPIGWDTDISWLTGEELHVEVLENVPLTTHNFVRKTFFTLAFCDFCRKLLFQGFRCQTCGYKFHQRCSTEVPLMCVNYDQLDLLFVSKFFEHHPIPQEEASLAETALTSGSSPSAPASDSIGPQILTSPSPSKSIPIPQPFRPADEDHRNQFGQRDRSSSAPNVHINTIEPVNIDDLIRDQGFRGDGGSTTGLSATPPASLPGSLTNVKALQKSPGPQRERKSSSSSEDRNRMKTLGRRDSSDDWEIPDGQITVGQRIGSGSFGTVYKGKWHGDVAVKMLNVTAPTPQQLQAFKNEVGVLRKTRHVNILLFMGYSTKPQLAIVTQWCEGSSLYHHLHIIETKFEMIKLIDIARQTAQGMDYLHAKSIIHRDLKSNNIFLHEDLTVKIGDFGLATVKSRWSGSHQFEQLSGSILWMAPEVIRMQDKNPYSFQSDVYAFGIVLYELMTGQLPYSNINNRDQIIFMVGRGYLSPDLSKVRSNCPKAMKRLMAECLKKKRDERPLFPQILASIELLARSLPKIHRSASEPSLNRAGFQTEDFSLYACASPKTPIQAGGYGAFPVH
Procedure: as §1

PKCβI(h) = biological target: T9, PKCβI(h) (Homo sapiens, UniProt P05771)
T9 construct: gene PRKCB; isoform beta I
T9 sequence (P05771 whole entry, canonical isoform): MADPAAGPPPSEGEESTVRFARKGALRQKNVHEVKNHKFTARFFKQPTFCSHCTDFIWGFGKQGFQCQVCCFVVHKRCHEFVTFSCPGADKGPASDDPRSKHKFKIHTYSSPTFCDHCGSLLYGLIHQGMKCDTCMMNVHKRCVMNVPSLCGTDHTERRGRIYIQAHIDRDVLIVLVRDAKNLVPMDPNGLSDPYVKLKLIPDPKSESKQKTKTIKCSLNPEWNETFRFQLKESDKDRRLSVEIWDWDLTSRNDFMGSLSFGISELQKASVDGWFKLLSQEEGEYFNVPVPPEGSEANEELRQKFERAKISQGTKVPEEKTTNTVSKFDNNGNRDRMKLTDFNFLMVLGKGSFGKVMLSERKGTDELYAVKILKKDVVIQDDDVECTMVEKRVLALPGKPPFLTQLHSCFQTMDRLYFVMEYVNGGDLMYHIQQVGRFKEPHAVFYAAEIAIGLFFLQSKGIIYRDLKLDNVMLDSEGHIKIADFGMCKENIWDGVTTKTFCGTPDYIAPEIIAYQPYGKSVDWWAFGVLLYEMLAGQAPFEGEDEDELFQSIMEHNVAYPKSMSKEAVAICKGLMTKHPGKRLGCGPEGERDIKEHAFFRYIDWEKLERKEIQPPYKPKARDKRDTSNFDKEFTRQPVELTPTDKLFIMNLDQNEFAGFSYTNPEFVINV
Procedure: as §1

CK1γ3(h) = biological target: T10, CK1γ3(h) (Homo sapiens, UniProt Q9Y6M4)
T10 construct: gene CSNK1G3
Procedure: as §1

SIK2(h) = SIK2(h) (Homo sapiens, UniProt Q9H0K1)
Procedure: as §1

CaMKIIγ(h) = biological target: T11, CaMKIIγ(h) (Homo sapiens, UniProt Q13555)
T11 construct: gene CAMK2G
Procedure: as §1

[1] = read-out: Residual activity (%) Spautin-1 5aa
[2] = read-out: Residual activity (%) 5as
[3] = read-out: Residual activity (%) 5at
[4] = read-out: Residual activity (%) 5ay

Fc1ccc(CNc2ncnc3ccc(F)cc23)cc1 [5aa, 6-Fluoro-N-(4-fluorobenzyl)-4-Quinazolinamine]
remaining activity at 10 µM (PKCα(h); [1]): 89%
remaining activity at 10 µM (ZAP-70(h); [1]): 146%
remaining activity at 10 µM (MSK1(h); [1]): 90%
remaining activity at 10 µM (cKit(V654A)(h); [1]): 112%
remaining activity at 10 µM (PIP4K2a(h); [1]): 93%
remaining activity at 10 µM (CK1ε(h); [1]): 87%
remaining activity at 10 µM (MSK2(h); [1]): 91%
remaining activity at 10 µM (STK16(h); [1]): 88%
remaining activity at 10 µM (B-Raf(h); [1]): 90%
remaining activity at 10 µM (PKCβI(h); [1]): 95%
remaining activity at 10 µM (CK1γ3(h); [1]): 81%
remaining activity at 10 µM (SIK2(h); [1]): 91%
remaining activity at 10 µM (CaMKIIγ(h); [1]): 83%

Fc1ccc(CCNc2ncnc3ccc(F)cc23)cc1 [5as, 6-Fluoro-N-[2-(4-Fluorophenyl)Ethyl]-4-Quinazolinamine]
remaining activity at 10 µM (PKCα(h); [2]): 94%
remaining activity at 10 µM (ZAP-70(h); [2]): 146%
remaining activity at 10 µM (MSK1(h); [2]): 70%
remaining activity at 10 µM (cKit(V654A)(h); [2]): 85%
remaining activity at 10 µM (PIP4K2a(h); [2]): 96%
remaining activity at 10 µM (CK1ε(h); [2]): 76%
remaining activity at 10 µM (MSK2(h); [2]): 96%
remaining activity at 10 µM (STK16(h); [2]): 75%
remaining activity at 10 µM (B-Raf(h); [2]): 83%
remaining activity at 10 µM (PKCβI(h); [2]): 100%
remaining activity at 10 µM (CK1γ3(h); [2]): 87%
remaining activity at 10 µM (SIK2(h); [2]): 97%
remaining activity at 10 µM (CaMKIIγ(h); [2]): 74%

Fc1ccc2ncnc(NCCc3ccc(Cl)cc3)c2c1 [5at, N-[2-(4-Chlorophenyl)Ethyl]-6-Fluoro-4-Quinazolinamine]
remaining activity at 10 µM (PKCα(h); [3]): 79%
remaining activity at 10 µM (ZAP-70(h); [3]): 130%
remaining activity at 10 µM (MSK1(h); [3]): 79%
remaining activity at 10 µM (cKit(V654A)(h); [3]): 85%
remaining activity at 10 µM (PIP4K2a(h); [3]): 92%
remaining activity at 10 µM (CK1ε(h); [3]): 82%
remaining activity at 10 µM (MSK2(h); [3]): 97%
remaining activity at 10 µM (STK16(h); [3]): 78%
remaining activity at 10 µM (B-Raf(h); [3]): 92%
remaining activity at 10 µM (PKCβI(h); [3]): 93%
remaining activity at 10 µM (CK1γ3(h); [3]): 73%
remaining activity at 10 µM (SIK2(h); [3]): 84%
remaining activity at 10 µM (CaMKIIγ(h); [3]): 75%

COc1ccc2ncnc(Nc3cccc(F)c3)c2c1 [5ay, N-(3-Fluorophenyl)-6-Methoxy-4-Quinazolinamine]
remaining activity at 10 µM (PKCα(h); [4]): 86%
remaining activity at 10 µM (ZAP-70(h); [4]): 113%
remaining activity at 10 µM (MSK1(h); [4]): 74%
remaining activity at 10 µM (cKit(V654A)(h); [4]): 92%
remaining activity at 10 µM (PIP4K2a(h); [4]): 102%
remaining activity at 10 µM (CK1ε(h); [4]): 78%
remaining activity at 10 µM (MSK2(h); [4]): 88%
remaining activity at 10 µM (STK16(h); [4]): 76%
remaining activity at 10 µM (B-Raf(h); [4]): 82%
remaining activity at 10 µM (PKCβI(h); [4]): 86%
remaining activity at 10 µM (CK1γ3(h); [4]): 83%
remaining activity at 10 µM (SIK2(h); [4]): 65%
remaining activity at 10 µM (CaMKIIγ(h); [4]): 41%
